The source of these data is patent US12435294B2, “Prevention of the oxidation of perfumery raw materials and food raw materials” (Firmenich SA, priority 2018, dated 2025).

The nature of data set [1]: POV reduction in model citrus perfume (mixed citrus oil in 90/10 v/v ethanol/water). Conditions: for reduction in POV relative to untreated material: 7 days after addition, 1.0% w/v in model perfume; for Reduction in POV (%): vs untreated.
Data set [2] can be described thus: POV reduction in sunflower oil. The following applies: for POV of treated oil / % Reduction in POV: 0.3358 g in 15 mL sunflower oil.
Data set [3] in a line: POV reduction in autoxidized limonene. Conditions: for POV / POV reduction: 250 μL in 20 mL autoxidized limonene. The method, then: The vial was shaken once and allowed to stand for 50 minutes. No further treatment was done prior to the POV testing. […] POV before treatment was 65.97 mEq./L, and POV after treatment was 17.21 mEq./L. […] The vial was shaken once and allowed to stand, while being monitored for POV value as a function of time. […] The vial was shaken once and allowed to stand, while being monitored for POV value as a function of time.

The nature of data set [4]: Solubility / miscibility observed on addition to the treated material.
Data set [5] in a line: HPLC chemiluminescence peak area of oxidized limonene. Conditions: oxidized limonene 100 μL + 2 mg HDPA. The method, then:
Preparation of the Treated Sample: Oxidized limonene (100 μL, with a starting POV of approximately 38 mmol/L) was treated with 2 mg of HDPA (approximately 2 eq of HP). The treated & un-treated limonene samples were allowed to stand on the benchtop under ambient laboratory light at room temperature, and HPLC Chemiluminescence measurements were taken periodically. The same quantity of untreated limonene was prepared in a 2nd vial and monitored similarly to the treated one for comparison.

[6] abbreviates: 1 day, approximately 150 mg (1.0% w/v) in 15 mL model perfume (Examples 14, 20, 21).
The mark [7] stands for this setting: 2 days, 1.0% w/v in 15 mL model perfume (Examples 14, 20, 21).
Setting [8] is: 4 days, 1.0% w/v in 15 mL model perfume (Examples 14, 20, 21).
The mark [9] stands for this setting: 7 days, 1.0% w/v in 15 mL model perfume (Examples 14, 20, 21).
[10] abbreviates: model citrus perfume, DMESi 0.3247 g, 0 d since addition.
Where [11] appears, read: model citrus perfume, DMESi 0.3247 g, 0.08 d since addition.
The mark [12] stands for this setting: model citrus perfume, DMESi 0.3247 g, 1.29 d since addition.
[13] abbreviates: model citrus perfume, DMESi 0.3247 g, 5 d since addition.
[14] abbreviates: model citrus perfume, DMESi 0.3247 g, 14 d since addition.

Values joined by “and” are separate entries in the source; they are usually repeats but may differ in a detail not shown here. Identical values can stand only once. Like-named read-outs stand apart in the source and are kept apart here.

`CCOC(=O)[C@@H](N)CS.Cl` [L-Cysteine ethyl ester hydrochloride]: in data set [1] (approximately 0.15 g in 15 mL model perfume, 89 minutes after addition), the “% POV Reduction” value stood at 100%. Further, the “POV after Treatment” value in data set [1] (approximately 0.15 g in 15 mL model perfume, 89 minutes after addition, untreated 5.55 mmol/L) worked out at 0.00 mmol/L.

On to `CCCCCCCCCCN(C)C.O=C(O)C(=O)c1ccco1` [FAA-DiMeC10A], for which the “POV of treated oil” value in data set [2] (85 minutes since addition) is 5.16 mmol/L; in data set [2] (140 minutes), 2.97 mmol/L; in data set [2] (1320 mins (22 hrs)), 0.43 mmol/L; in data set [2] (23 days, indistinguishable from BLANK) it was 0.00 mmol/L. The “% Reduction in POV” value in data set [2] (85 minutes) turned out to be 68.8%; in data set [2] (140 minutes), 82.1%; in data set [2] (1320 mins (22 hrs)), 97.4%; in data set [2] (23 days), 100%. Moreover, the “POV of Treated Perfume” value in data set [1] (setting [6]) stood at 5.06 mmol/L; in data set [1] (setting [7]), 4.89 mmol/L; in data set [1] (setting [8]), 4.68 mmol/L; in data set [1] (setting [9]), 4.28 mmol/L. Besides, the “reduction in POV relative to untreated material” value in data set [1] was found to be 40.0%.

For “L-Ascorbic acid 2-phosphate sesqui-magnesium salt hydrate [Vc-PSeMg]”, the “POV (mmol/L) of treated” value in data set [1] (hydrate) is 12.4 mmol/L and 12.32 mmol/L and 12.66 mmol/L and 12.28 mmol/L and 13.26 mmol/L and 15.25 mmol/L and 20.2 mmol/L.

In the case of `CCC(=O)C(=O)O` [2-oxobutyric acid], the POV in data set [3] (3 min since addition) was found to be 43.680 mEq/L; in data set [3] (20 min since addition), 22.140 mEq/L; in data set [3] (35 min since addition) it was 22.681 mEq/L; in data set [3] (44 min since addition), 19.968 mEq/L; in data set [3] (66 min since addition) it was 21.406 mEq/L. In addition, the POV reduction is listed as 34.1% in data set [3] (3 min since addition); 66.6% in data set [3] (20 min since addition); 65.8% in data set [3] (35 min since addition); 69.9% in data set [3] (44 min since addition); 67.7% in data set [3] (66 min since addition). In addition, the “measured POV” value in data set [3] (additional 500 μL added (after 250 μL), additional 24 hours, 20 mL autoxidized limonene) was 8.577 mEq./L. In data set [3] (additional 500 μL added, additional 24 hours), this compound showed a total reduction of 87.1%.

As for `O=C(O)C(=O)c1ccco1` [α-Oxo-2-furanacetic acid, α-oxo-2-furanacetic acid], the “solubility in mixed citrus oil (in words)” value in data set [4] (on addition to mixed citrus oil) is reported as “The majority of the added α-oxo-2-furanacetic acid did not dissolve”.

As for `CC1=C(C(=O)N(C)C)CC(C(=O)N(C)C)=C(C)N1` [HDPA, N(3),N(3),N(5),N(5),2,6-Hexamethyl-1,4-Dihydro-3,5-Pyridinedicarboxamide], the “Peak Area Treated” value is recorded as 12723 in data set [5] (treatment time 1 day), 12128 in data set [5] (treatment time 6 days), 10978 in data set [5] (treatment time 13 days) and 17089 in data set [5] (treatment time 20 days).

`CCCC(=O)C(=O)O` [2-oxovaleric acid]: the POV is 7.38 mmol/L in data set [2] (30 minutes since addition, 250 μL in 25 mL sunflower oil); 7.84 mmol/L in data set [2] (50 minutes since addition, 250 μL in 25 mL sunflower oil); 4.95 mmol/L and 4.67 mmol/L in data set [2] (23 hours since addition, 250 μL in 25 mL sunflower oil, single measurements); 5.34 mmol/L and 5.10 mmol/L in data set [2] (46 hours since addition, 250 μL in 25 mL sunflower oil, single measurements); 2.27 mmol/L and 2.05 mmol/L and 1.99 mmol/L in data set [2] (15 days since addition, 250 μL in 25 mL sunflower oil, single measurements). The POV reduction is reported as 16.2% in data set [2] (30 minutes, 250 μL in 25 mL sunflower oil, vs most recent untreated POV); 11.0% in data set [2] (50 minutes, 250 μL in 25 mL sunflower oil, vs most recent untreated POV); 45.4% in data set [2] (23 hours, 250 μL in 25 mL sunflower oil, vs most recent untreated POV); 53.0% in data set [2] (46 hours, 250 μL in 25 mL sunflower oil, vs most recent untreated POV); 82.9% in data set [2] (15 days, 250 μL in 25 mL sunflower oil (0.83% v/v), vs untreated oil). Also, the “POV, averaged value (in parentheses)” value in data set [2] (23 hours since addition, 250 μL in 25 mL sunflower oil) worked out at 4.81 mmol/L; in data set [2] (46 hours since addition, 250 μL in 25 mL sunflower oil), 5.22 mmol/L; in data set [2] (15 days since addition, 250 μL in 25 mL sunflower oil) it was 2.10 mmol/L. Besides, the “reduction in POV” value in data set [3] (100 μL in 10 mL autoxidized limonene, 50 minutes, vs 65.97 mEq./L before) is “approximately 74%”. For the same compound, in data set [3] (100 μL in 10 mL autoxidized limonene, stood 50 minutes), the POV after Treatment is given as 17.21 mEq./L.

As to `CC[SiH](C)C` [DMESi, Dimethylethylsilane], the “POV (mmol/L) of treated” value in data set [1] (setting [10]) came to 13.2 mmol/L; in data set [1] (setting [11]), 9.29 mmol/L; in data set [1] (setting [12]), 9.32 mmol/L; in data set [1] (setting [13]), 10.53 mmol/L; in data set [1] (setting [14]), 13.65 mmol/L. In addition, the “Reduction in POV (%)” value stood at 0.00% in data set [1] (setting [10]); 29.62% in data set [1] (setting [11]); 33.43% in data set [1] (setting [12]); 30.03% in data set [1] (setting [13]); 24.38% in data set [1] (setting [14]).

Consider `C[SiH](C)O[Si](C)(C)C` [PMDSi, Pentamethyldisiloxane], for which the “solubility / miscibility in model citrus perfume (in words)” value in data set [4] (on addition to hydroalcoholic model citrus perfume) is reported as “miscible with the perfume”.

In the case of `N[C@@H](CCC(=O)N[C@@H](CS)C(=O)NCC(=O)O)C(=O)O` [glutathione], the “% POV Reduction” value in data set [1] (approximately 0.15 g in 15 mL model perfume, 3 days after addition) is on record as 100%. Moreover, the “POV after Treatment” value in data set [1] (approximately 0.15 g in 15 mL model perfume, 3 days after addition, untreated 5.55 mmol/L) is on record as 0.00 mmol/L.

Consider `O=CC(=O)O` [Glyoxylic Acid], for which the “POV after Treatment” value in data set [1] (model citrus perfume, 3 days after addition of treating compound) is on record as 3.00 mmol/L; in data set [1] (model citrus perfume, 10 days after addition of treating compound), 1.61 mmol/L. Moreover, the “% POV Reduction” value in data set [1] (model citrus perfume, 3 days after addition of treating compound, vs untreated sample) was found to be 54.6%; in data set [1] (model citrus perfume, 10 days after addition of treating compound, vs untreated sample), 80.8%.

As for “2-Phospho-L-ascorbic acid trisodium salt [Vc-PTNa]”, the “POV (mmol/L) of treated” value in data set [1] (trisodium salt) was 12.4 mmol/L and 11.7 mmol/L and 11.57 mmol/L and 10.15 mmol/L and 8.7 mmol/L and 9.22 mmol/L and 9.49 mmol/L.

As for `COC(=O)[C@H](CS)NC(C)=O` [N-acetylcysteine methyl ester], in data set [1], the “% POV Reduction” value is 100% and the “POV after Treatment” value is recorded as 0.00 mmol/L.

Regarding `CN(C)CCO.CN(C)CCO.O=C(O)CCC(=O)C(=O)O` [AKG DiDeanol], the “POV of Treated Perfume” value in data set [1] (60 min, approximately 200 mg (1.0% w/v) in 20 mL model perfume (Example 9)) is listed as 5.95 mmol/L; in data set [1] (75 min, 1.0% w/v in 20 mL model perfume (Example 9)) it was 5.66 mmol/L; in data set [1] (115 min, 1.0% w/v in 20 mL model perfume (Example 9)), 4.96 mmol/L; in data set [1] (195 min, 1.0% w/v in 20 mL model perfume (Example 9)) it was 3.20 mmol/L; in data set [1] (210 min, 1.0% w/v in 20 mL model perfume (Example 9)), 3.08 mmol/L; in data set [1] (300 min (5 hours), 1.0% w/v in 20 mL model perfume (Example 9)), 2.31 mmol/L. Besides, the “POV of Treated Perfume” value in data set [1] (370 min, 1.0% w/v in 20 mL model perfume (Example 9)) is 1.73 mmol/L; in data set [1] (380 min, 1.0% w/v in 20 mL model perfume (Example 9)), 1.72 mmol/L; in data set [1] ([…] (24 hours), 1.0% w/v in 20 mL model perfume (Example 9), indistinguishable from blank), 0.0 mmol/L.

With `O=C(O)C(=O)c1ccccc1.O=C1NCCN1CCO` [PhGA-HEI], the “POV of Treated Perfume” value in data set [1] (setting [6]) is given as 3.51 mmol/L; in data set [1] (setting [7]), 3.18 mmol/L; in data set [1] (setting [8]), 3.06 mmol/L; in data set [1] (setting [9]), 2.94 mmol/L. In data set [1], the “reduction in POV relative to untreated material” value came out at 58.8%.
